Results published in PMC7012012, “Bioassay-guided isolation, identification of compounds from Origanum rotundifolium and investigation of their antiproliferative and antioxidant activities” (Pharmaceutical Biology, 2017).
Values joined by “and” are separate entries in the source; they are usually repeats but may differ in a detail not shown here. Identical values can stand only once.

What was measured:
[1] = DPPH free radical scavenging assay; conditions: 30 min, absorbance 517 nm
Experimental: The free radical scavenging activities of extracts and standards were evaluated by 2,2-diphenyl-1-picrylhydrazil (DPPH^•) (Blois [1958]). To a different concentration of 3.0 mL of extract (3.0–20 μg/mL) in ethanol, DPPH^• solution (1.0 mL, 0.26 mM) were added. After that it is stirred and kept at Rt for 30 min, The absorbance of the mixture was executed at 517 nm in a spectrophotometer. The activity was calculated by the below equation. DPPH• scavenging effect %=Ac-As/Ac×100
In which, Ac and As are the control and sample absorbance, respectively.

[2] = tested on: Vero (African green monkey kidney epithelium) cells; assay: BrdU cell proliferation ELISA, Vero; assay type: cell-based; conditions: for Antiproliferative activity on Vero (in words): 5-100 μg/mL; for IC50: BrdU ELISA
Experimental: (§1) Anticancer potential of isolated compounds was investigated on C6, HT29, HeLa and Vero cell lines. These cells were sustained with Dulbecco’s modified eagle’s medium, complemented with foetal bovine serum and PenStep solution (ATCC, American Type Culture Collection). The old medium was aspirated out of the plate while cells had reached a confluence of 80% then cells were removed from the flasks using trypsin-EDTA (4 mL) and centrifuged. Afterward, cell pellet was suspended with DMEM and was counted to gain a final concentration as 5 × 10^4 cells/mL, inoculated into wells (100 μL cells/well).
(§2) The antiproliferative activity of compounds against various cell lines (C6, HeLa and Vero cells) was tested by cell proliferation assay using BrdU Cell Proliferation ELISA kit. A cell suspension containing nearly 5 × 10^3 cells in 100 μL was conveyed into the well cell plates (96-well cell). The treatments of cells with compounds in DMSO and 5-Florouracil (5 FU) in DMSO separately at concentration 5–100 μg/mL were carried out. The last volume of the wells was adapted to 200 μL by DMEM and mixture was incubated at 37 °C with 5% CO2 for overnight (Okten et al. [2013]).
(§3) The half inhibitory concentration of the isolated compounds and standards was calculated by XLfit5 software (IDBS) and explicated in μM at 95% confidence levels (Table 1). The proliferation results were recorded as the per cent inhibition of the compounds and control substances. The following formula was used for the calculation of inhibition % Inhibition = [Asample– Acontrol/Acontrol]×100
(§4) where Asample is the absorbance of the compounds and Acontrol is the absorbance of the DMSO.

[3] = ABTS radical cation scavenging assay; conditions: 30 min, absorbance 734 nm; unit printed only in abstract
Experimental: 2,2″-Azino-bis (3-ethylbenzthiazoline-6-sulfonic acid) (ABTS) cation radical scavenging assay based on the decreasing ABTS radical cation, a blue/green chromophore with absorption at […], in comparison to that of BHA, BHT and Trolox. This method was executed as in the literature (Re et al. [1999]). Treatment of ABTS (2.0 mM) in phosphate buffer (0.1 M, pH 7.4) with potassium persulfate (K2S2O8) (2.45 mM) gave the ABTS^•+, kept at dark at Rt for 4 h. Initially, dilution of ABTS^•+ was performed with sodium phosphate buffer (pH 7.4, 0.1 M) to obtain absorbance 0.750 ± 0.025 at 734 nm. After all, ABTS^•+ solution (1.0 mL) was added to each extract solution in ethanol (3.0 mL) at different concentration (2.5–20 μg/mL). After 30 min, the inhibition was calculated for each concentration relative to a blank absorbance. The scavenging ability of ABTS^•+ was calculated by given equation:
ABTS^•+scavenging activity (%)=[(Ac – As)/Ac]*100 in which, Ac is the initial concentration of ABTS^•+ and As is the absorbance of the remaining concentration of ABTS^•+ in the samples.

[4] = Ferric ions (Fe3+) reducing antioxidant power assay (FRAP); conditions: 10 μg/mL
Experimental: Different concentrations of samples (5–40 μg/mL) in 1 mL of deionized water were mixed with sodium phosphate buffer (1.25 mL, 0.2 M, pH 6.6) and potassium ferricyanide [K3Fe(CN)6] (1.25 mL, 1%). After the incubation of the mixture at 50 °C for 20 min, trichloroacetic acid (1.25 mL, 10%) and FeCl3 (0.25 mL, 0.1%) were added to the reaction medium. The reaction mixture was vortexed thoroughly and absorbance measurement at 700 nm was executed in a spectrophotometer.

[5] = tested on: C6 (rat brain tumour) cell lines; assay: BrdU cell proliferation ELISA, C6; assay type: cell-based; conditions: for Antiproliferative activity on C6 (in words): C6, 5-100 μg/mL; for IC50: C6, BrdU ELISA; for Tumour specificity C6: C6 relative to Vero
Experimental: as §1, §2, §3, §4

[6] = tested on: HT29 (human colon carcinoma) cell lines; assay: BrdU cell proliferation ELISA, HT29; assay type: cell-based; conditions: for Tumour specificity HT29: HT29 relative to Vero
Experimental: as §1, §2, §3, §4

[7] = tested on: HeLa (human cervix carcinoma) cell lines; assay: BrdU cell proliferation ELISA, HeLa; assay type: cell-based; conditions: for Tumour specificity HeLa: HeLa relative to Vero; for IC50: BrdU ELISA
Experimental: as §1, §2, §3, §4

[8] = Homo sapiens, HT-29, HT29, BrdU ELISA

| Molecule | IC50 [1] [µM] | ABTS radical cation scavenging IC50 [3] | IC50 ([5]; Rattus norvegicus) [µM] | IC50 [6, 8] [µM] | IC50 ([7]; Homo sapiens, HeLa) [µM] | Antiproliferative activity on Vero (in words) [2] | Reducing power (absorbance at 700 nm) [4] | Antiproliferative activity on C6 (in words) [5] | Antiproliferative activity on HT29 (in words) ([6]; HT29, 5-100 μg/mL) | Antiproliferative activity on HeLa (in words) ([7]; HeLa, 5-100 μg/mL) | IC50 [2] [µM] | IC50 [5] [µM] | IC50 ([5]; listed as cisplatin) [µM] | Tumour specificity C6 [5] | IC50 ([6]; HT29, BrdU ELISA) [µM] | Tumour specificity HT29 [6] | Tumour specificity HeLa [7] | IC50 ([7]; HeLa) [µM] | IC50 ([2]; Chlorocebus sabaeus) [µM] |
| --- | --- | --- | --- | --- | --- | --- | --- | --- | --- | --- | --- | --- | --- | --- | --- | --- | --- | --- | --- |
| COc1ccc(O)c(C(C)(C)C)c1 [BHA, butylated hydroxyanisole, reference compound] | 12.9 | 7.6 µg/mL |  |  |  |  | 1.12 |  |  |  |  |  |  |  |  |  |  |  |  |
| N.N.[Cl][Pt][Cl] [Cisplatin, reference compound] |  |  |  |  |  |  |  |  |  |  | 40.8 | 61.5 | 61.5 | 0.66 | 48.6 | 0.84 | 0.92 | 44.2 |  |
| O=C(/C=C/c1ccc(O)c(O)c1)O[C@H](Cc1ccc(O)c(O)c1)C(=O)O [Compound 5, rosmarinic acid] | 47.2 | 14.2 µg/mL | 252 | 262 | 233 | good effect | 0.60 |  |  |  |  | 251 |  | 1.11 | 262 | 1.07 | 1.19 |  | 279 |
| vitexin [Compound 3] | 31.4 | 3.6 µg/mL and 3.7 µg/mL |  |  |  | effective at high concentrations | 0.27 |  |  |  | 46.7 | 41.6 |  | 1.12 | 32.5 | 1.43 | 1.31 | 35.6 |  |
| caprolactam [Compound 4] | 329 | 61.5 µg/mL |  |  |  | did not reveal the remarkable activity | 0.08 | Noticeable effect has not been detected |  |  |  |  |  |  |  |  |  |  |  |

Continued, in another order:

| IC50 [1] [µM] | ABTS radical cation scavenging IC50 [3] | IC50 ([5]; Rattus norvegicus) [µM] | IC50 [6, 8] [µM] | IC50 ([7]; Homo sapiens, HeLa) [µM] | Molecule | Antiproliferative activity on Vero (in words) [2] | Reducing power (absorbance at 700 nm) [4] | Antiproliferative activity on C6 (in words) [5] | Antiproliferative activity on HT29 (in words) ([6]; HT29, 5-100 μg/mL) | Antiproliferative activity on HeLa (in words) ([7]; HeLa, 5-100 μg/mL) | IC50 [2] [µM] | IC50 [5] [µM] | IC50 ([5]; listed as cisplatin) [µM] | Tumour specificity C6 [5] | IC50 ([6]; HT29, BrdU ELISA) [µM] | Tumour specificity HT29 [6] | Tumour specificity HeLa [7] | IC50 ([7]; HeLa) [µM] | IC50 ([2]; Chlorocebus sabaeus) [µM] |
| --- | --- | --- | --- | --- | --- | --- | --- | --- | --- | --- | --- | --- | --- | --- | --- | --- | --- | --- | --- |
| 173 | 8.9 µg/mL |  |  |  | O=c1cc(-c2ccc(O)cc2)oc2cc(O)cc(O)c12 [Compound 1, Apigenin] | did not reveal the remarkable activity | 0.14 | Noticeable effect has not been detected | has not a noteworthy effect | did not reveal the noticeable activity |  |  |  |  |  |  |  |  |  |
| 196 | 5.0 µg/mL |  |  |  | Cc1cc(C(C)(C)C)c(O)c(C(C)(C)C)c1 [BHT, Butylated hydroxytoluene, reference compound] |  | 0.81 |  |  |  |  |  |  |  |  |  |  |  |  |
|  | 13.8 µg/mL |  |  |  | Cc1c(C)c2c(c(C)c1O)CCC(C)(C(=O)O)O2 (centres unmarked) [Trolox, reference compound] |  | 0.61 |  |  |  |  |  |  |  |  |  |  |  |  |
| 22.4 | 4.6 µg/mL | 169 | 136 | 140 | O=C(OC(Cc1ccc(O)c(O)c1)C(=O)O)c1cc(-c2ccc(O)c(O)c2)c2cc(O)c(O)cc2c1 (centres unmarked) [Compound 6, globoidnan A] | did not reveal the remarkable activity | 1.25 |  |  |  |  | 169 |  |  | 136 |  |  | 140 |  |
